15 compounds from US4146614A, “Threonyl-valyline leucine containing peptides and pharmaceutical compositions” (State of Michigan, priority 1977, dated 1979) can be followed below.

Non-standard residues stand in square brackets, D forms with d. Residues, ends and D or L forms follow the SMILES beside them. *: point of attachment. Bn = c1ccc(C*)cc1

Test [1] relates to tryptophan uptake. The experiment in a line: Tryptophan uptake inhibition (tryptophan uptake method).
Description: Each of the resultant 10 fractions is assayed according to the tryptophan uptake method described in Biological Psychiatry, Vol. 7, No. 1, p. 53, (1973) as an indication of the amount of anti-S protein factor therein.
Tryptophan uptake are also conducted for the tested polypeptides. The tryptophan uptake inhibition is determined at 10 minutes.
Test [2] has as its system alpha-helical S-protein. Briefly: Intracranial self-stimulation (bar pressing) in rats given alpha-helical S-protein. It counts as in vivo. As to conditions: for Bar Presses Restoration %: alpha-helical S-protein intercisternally, polypeptide 0.2 mg/kg intramuscularly.
For test [3], the system named is S-protein of schizophrenics. The experiment in a line: Conversion of alpha-helical S-protein to random chain conformation. It is filed as biochemical, human.
Test [4] can be described thus: Activity useful for alleviating the symptoms of schizophrenia (test not specified). How it is done: Following essentially the same procedures as described above, N-acetyl-tyrosylthreonylvalylleucine, prolylthreonylvalylleucylprolylglycine are tested to determine their effect on rats which have been administered the alpha-helical S-protein.

For the compound `CC(C)C[C@H](NC(=O)[C@@H](NC(=O)[C@@H](N)[C@@H](C)O)C(C)C)C(N)=O` [Threonylvalylleucinamide] (H-Thr-Val-Leu-NH2), the “Tryptophan Uptake Inhibition %” value in test [1] (determined at 10 minutes) was 21.6%. The “Bar Presses Restoration %” value in test [2] (rats) is recorded as 90%.
For `NCC(=O)NCC(=O)NCC(=O)O` [Glycylglycylglycine, reference compound] (H-Gly-Gly-Gly-OH) the same measures were 0% and 3%.
For “N-α-Acetyl-Threonylvalyleucine, methyl ester”, the “Tryptophan Uptake Inhibition %” value in test [1] (determined at 10 minutes) came to 24.2%.
As for `CC(=O)N[C@H](C(=O)N[C@H](C(=O)N[C@@H](CC(C)C)C(N)=O)C(C)C)[C@@H](C)O` [N-Acetyl-threonylvalylleucinamide] (Ac-Thr-Val-Leu-NH2), the “Tryptophan Uptake Inhibition %” value in test [1] (determined at 10 minutes) worked out at 56.5%. Further, in test [2] (rats), the “Bar Presses Restoration %” value worked out at 100%.
For `CC(C)C[C@H](NC(=O)[C@@H](NC(=O)[C@@H](NC(=O)CN)[C@@H](C)O)C(C)C)C(=O)O` [Glycylthreonylvalylleucine] (H-GTVL-OH) the same measures were 24.3% and 100%.
Regarding `CC(C)C[C@@H](NC(=O)[C@@H](NC(=O)[C@@H](N)[C@@H](C)O)C(C)C)C(=O)O` [L-Threonyl-L-valyl-D-leucine] (H-Thr-Val-[dL]-OH), the “Tryptophan Uptake Inhibition %” value in test [1] (15 min.) came to 18%; in test [1] (30 min.) it was 21%; in test [1] (determined at 10 minutes), 12%.
Regarding `CC(=O)N[C@H](C(=O)N[C@H](C(=O)N[C@@H](CC(C)C)C(=O)O)C(C)C)[C@@H](C)O` [N-Acetyl-threonylvalylleucine] (Ac-Thr-Val-Leu-OH), the “Tryptophan Uptake Inhibition %” value in test [1] (determined at 10 minutes) came out at 20.2%. Besides, the “Bar Presses Restoration %” value in test [2] (rats) is 100%.
For the compound `CC(C)C[C@H](NC(=O)[C@@H](NC(=O)[C@@H](N)[C@@H](C)O)C(C)C)C(=O)O` [Threonylvalylleucine] (H-Thr-Val-Leu-OH), the “activity against the S-protein of schizophrenics (conformation change, in words)” value in test [3] was “the alpha-helical conformation of the S-protein is converted to the random form”. In addition, in test [1] (determined at 10 minutes), the “Tryptophan Uptake Inhibition %” value turned out to be 19.8%. In test [2] (rats), the “period of effectiveness in counteracting the effect of the S-protein” value is recorded as “of short duration” and the “Bar Presses Restoration %” value amounted to 85%.
`CC(C)C[C@H](NC(=O)[C@@H](NC(=O)[C@@H](NC(=O)[C@@H]1CCCN1C(=O)[C@@H](N)Cc1ccccc1)[C@@H](C)O)C(C)C)C(=O)N1CCC[C@H]1C(=O)N[C@@H](Cc1ccccc1)C(=O)O` [Phenylalanylprolylthreonylvallylleucylprolyl phenylalanine] (H-FPTVLPF-OH): the “Tryptophan Uptake Inhibition %” value in test [1] (determined at 10 minutes) stood at 39.5%. The “Bar Presses Restoration %” value in test [2] (rats) is recorded as 100%.
In the same order, the values of `CC[C@H](C)[C@H](NC(=O)[C@@H](NC(=O)[C@@H](N)[C@@H](C)O)C(C)C)C(=O)O` [Threonylvalylisoleucine] (H-Thr-Val-Ile-OH) are 5.6% and 41%.
Take `CC(C)C[C@H](NC(=O)[C@@H](NC(=O)[C@@H](N)[C@@H](C)O)C(C)C)C(=O)N[C@@H](CCCNC(=N)N)C(=O)O` [threonylvalylleucylarginine] (H-TVLR-OH): the “activity useful for alleviating the symptoms of schizophrenia (in words)” value in test [4] is reported as “exhibiting activity useful for alleviating the symptoms of schizophrenia”.
`CC(C)C[C@H](NC(=O)[C@@H](NC(=O)[C@@H](N)[C@@H](C)O)C(C)C)C(=O)N[C@H](C)C(=O)O` [L-Threonyl-L-valyl-L-leucyl-D-alanine] (H-TVL[dA]-OH): the “tryptophan uptake activity (in words)” value in test [1] is “without significant tryptophan uptake activity”. Besides, the “Tryptophan Uptake Inhibition %” value in test [1] (determined at 10 minutes) came to 2%.
On to `CC(C)C[C@H](NC(=O)[C@@H](NC(=O)[C@@H](N)[C@@H](C)OCc1ccccc1)C(C)C)C(N)=O` [O-Benzyl-threonylvalylleucinamide] (H-Thr(Bn)-Val-Leu-NH2), for which the “Tryptophan Uptake Inhibition %” value in test [1] (determined at 10 minutes) came out at 0%. Also, in test [2] (rats), the “Bar Presses Restoration %” value was “toxic”.
As to `CC(C)C[C@H](NC(=O)[C@@H](NC(=O)[C@@H](NC(=O)[C@@H](C)N)[C@@H](C)O)C(C)C)C(=O)O` [D-Alanyl-L-threonyl-L-valyl-L-leucine] (H-[dA]TVL-OH), the “duration of tryptophan uptake inhibition (in words)” value in test [1] (10, 15 and 30 minutes) was “after a period of time the inhibition of tryptophan uptake may be diminished”. The “Tryptophan Uptake Inhibition %” value in test [1] (15 min.) was 16%; in test [1] (30 min.), 0%; in test [1] (determined at 10 minutes), 15%.
Consider `CC(C)C[C@H](NC(=O)[C@@H](NC(=O)[C@@H](NC(=O)[C@@H]1CCCN1)[C@@H](C)O)C(C)C)C(=O)N1CCC[C@H]1C(=O)NCC(=O)O` [Prolylthreonylvalylleucylprolylgylcine] (H-PTVLPG-OH), for which the “Tryptophan Uptake Inhibition %” value in test [1] (determined at 10 minutes) is reported as 44.2%. The “restoration of the bar pressing activity of the rats (in words)” value in test [2] (rats administered the alpha-helical S-protein) is listed as “restores the bar pressing activity of the rats”.
